{"source": "patent US20020081602A1", "about": "“Method for the detection of compounds that modulate the effects of the obese (ob) protein” (SmithKline Beecham p.1.c., priority 1996, published 2002)", "key": {"WRL68 cells": {"test_system": "WRL68 cells", "assay": "c-fos expression by northern blotting in serum-starved WRL68 cells", "format": "cell-based", "conditions": "treated 5 minutes to 2 hours, normalised to beta-actin", "protocol": "7. Detection of increased c-fos mRNA after treatment with leptin. C-fos mRNA may be detected by Northern, RT-PCR or “slot blot” analysis.\nWRL68 cells were grown to confluence in their standard culture medium in the simultaneous presence of 10% foetal calf serum. At confluence the cells were transferred to serum-free medium for a minimum of 18 hours (lowering the serum concentration may also produce similar results). Serum-starved cells were then treated with leptin or with serum (as positive control for c-fos upregulation) for varying time periods from 5 minutes to 2 hours. RNA was extracted from the cells and subjected to gel electrophoresis and northern blotting. The blotted RNA was then probed with a c-fos labelled probe to analyze the expression of c-fos, the data being normalised by analysing the expression of beta-actin. […] Therefore WRL68 cells is expected to be suitable for identification of leptin mimetics. Other cell lines could also be identified via analysis of c-fos expression in response to leptin."}, "[1]": {"test_system": "rat-1 fibroblasts over expressing insulin receptors", "conditions": "Kroder et al. 1996; cited from earlier work"}}, "data": [{"substance": "Leptin: secreted hormone that acts as signal from adipose tissue to other organs to regulate weight and energy balance", "values": [{"measurement": "c-fos expression", "setting": "WRL68 cells", "value": "significantly enhanced"}, {"measurement": "insulin stimulated phosphorylation of the insulin receptor and insulin receptor substrate-I", "setting": "[1]", "value": "inhibition"}]}]}
